Where two headings read alike, the source gives them in different places.
Assays:
Assay in all cases: biochemical
RSK1b = RSK1b (Homo sapiens, UniProt Q15418)
DRAK2 = target: T1, DRAK2 (Homo sapiens, UniProt O94768)
T1 sequence (O94768 1-372): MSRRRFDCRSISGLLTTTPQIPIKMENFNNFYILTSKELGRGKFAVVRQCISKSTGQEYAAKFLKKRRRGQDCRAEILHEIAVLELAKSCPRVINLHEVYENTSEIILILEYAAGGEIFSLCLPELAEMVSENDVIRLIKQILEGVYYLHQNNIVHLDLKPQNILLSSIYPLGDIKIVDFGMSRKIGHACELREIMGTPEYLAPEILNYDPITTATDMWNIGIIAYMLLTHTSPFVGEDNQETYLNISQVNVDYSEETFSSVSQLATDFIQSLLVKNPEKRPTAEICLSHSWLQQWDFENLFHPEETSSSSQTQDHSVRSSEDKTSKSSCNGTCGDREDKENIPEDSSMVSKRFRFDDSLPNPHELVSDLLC

PIM1 = PIM1 (Homo sapiens, UniProt P11309)
PIM1, sequence (P11309 whole entry): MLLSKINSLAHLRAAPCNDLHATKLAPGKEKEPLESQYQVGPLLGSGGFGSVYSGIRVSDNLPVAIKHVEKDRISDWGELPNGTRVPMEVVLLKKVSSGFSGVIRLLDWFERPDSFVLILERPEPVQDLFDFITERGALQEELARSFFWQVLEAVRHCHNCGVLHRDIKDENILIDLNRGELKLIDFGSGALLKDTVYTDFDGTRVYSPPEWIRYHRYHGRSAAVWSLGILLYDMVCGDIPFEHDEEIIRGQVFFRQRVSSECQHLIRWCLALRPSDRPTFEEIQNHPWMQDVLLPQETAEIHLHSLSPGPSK

MARK3 = MARK3 (Homo sapiens, UniProt P27448)
MARK3, sequence (P27448 whole entry): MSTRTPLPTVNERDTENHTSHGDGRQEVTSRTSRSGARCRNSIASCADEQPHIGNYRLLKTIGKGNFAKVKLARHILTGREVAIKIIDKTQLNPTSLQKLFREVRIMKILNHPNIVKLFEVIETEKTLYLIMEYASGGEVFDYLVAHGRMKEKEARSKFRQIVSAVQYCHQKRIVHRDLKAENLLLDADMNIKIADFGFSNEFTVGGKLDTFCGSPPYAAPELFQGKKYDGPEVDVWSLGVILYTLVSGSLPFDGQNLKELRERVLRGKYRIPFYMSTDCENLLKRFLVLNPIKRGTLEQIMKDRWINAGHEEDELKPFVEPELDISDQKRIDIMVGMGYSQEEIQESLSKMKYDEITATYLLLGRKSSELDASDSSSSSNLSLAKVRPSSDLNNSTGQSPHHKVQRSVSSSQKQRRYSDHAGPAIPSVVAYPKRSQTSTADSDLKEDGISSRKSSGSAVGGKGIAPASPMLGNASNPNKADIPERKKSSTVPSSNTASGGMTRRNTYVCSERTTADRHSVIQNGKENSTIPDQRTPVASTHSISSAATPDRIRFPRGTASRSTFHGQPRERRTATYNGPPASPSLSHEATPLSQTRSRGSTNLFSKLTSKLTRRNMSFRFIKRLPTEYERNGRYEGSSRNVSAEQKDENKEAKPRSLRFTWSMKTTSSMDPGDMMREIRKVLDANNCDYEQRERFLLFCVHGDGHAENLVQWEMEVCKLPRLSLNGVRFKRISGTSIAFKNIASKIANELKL

LOK = LOK (Homo sapiens, UniProt O94804)
HIPK2 = HIPK2 (Homo sapiens, UniProt Q9H2X6)
HIPK2, sequence (Q9H2X6 whole entry): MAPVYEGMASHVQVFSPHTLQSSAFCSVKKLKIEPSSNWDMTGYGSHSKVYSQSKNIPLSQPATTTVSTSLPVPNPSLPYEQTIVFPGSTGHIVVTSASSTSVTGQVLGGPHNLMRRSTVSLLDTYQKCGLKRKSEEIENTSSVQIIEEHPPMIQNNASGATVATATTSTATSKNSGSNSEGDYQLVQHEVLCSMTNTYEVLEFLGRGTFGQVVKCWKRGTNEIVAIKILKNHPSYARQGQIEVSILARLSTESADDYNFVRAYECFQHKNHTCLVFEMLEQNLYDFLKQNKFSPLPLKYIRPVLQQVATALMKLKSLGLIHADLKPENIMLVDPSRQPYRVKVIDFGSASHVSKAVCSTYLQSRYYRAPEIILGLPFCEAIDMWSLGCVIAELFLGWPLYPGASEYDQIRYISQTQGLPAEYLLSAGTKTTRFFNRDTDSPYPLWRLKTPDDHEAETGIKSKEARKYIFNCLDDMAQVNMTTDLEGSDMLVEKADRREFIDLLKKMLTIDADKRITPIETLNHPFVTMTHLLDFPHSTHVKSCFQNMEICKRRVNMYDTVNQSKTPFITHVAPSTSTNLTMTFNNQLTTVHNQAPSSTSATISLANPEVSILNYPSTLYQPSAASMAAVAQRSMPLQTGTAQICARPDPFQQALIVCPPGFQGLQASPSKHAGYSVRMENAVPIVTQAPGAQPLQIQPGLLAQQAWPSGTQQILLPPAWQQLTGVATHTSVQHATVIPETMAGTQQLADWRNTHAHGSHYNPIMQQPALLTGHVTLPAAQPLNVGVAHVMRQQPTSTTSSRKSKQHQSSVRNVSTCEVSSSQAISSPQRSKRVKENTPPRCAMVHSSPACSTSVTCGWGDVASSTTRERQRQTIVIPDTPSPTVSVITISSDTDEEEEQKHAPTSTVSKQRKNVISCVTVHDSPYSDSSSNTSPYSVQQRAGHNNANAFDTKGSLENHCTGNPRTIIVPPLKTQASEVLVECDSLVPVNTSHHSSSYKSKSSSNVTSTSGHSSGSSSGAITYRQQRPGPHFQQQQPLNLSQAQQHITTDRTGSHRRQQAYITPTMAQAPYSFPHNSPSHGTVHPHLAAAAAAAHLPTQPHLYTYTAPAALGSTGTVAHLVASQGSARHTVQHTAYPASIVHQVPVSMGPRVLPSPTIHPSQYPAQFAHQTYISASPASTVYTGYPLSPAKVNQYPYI

PCTAIRE1 = PCTAIRE1 (Homo sapiens, UniProt Q00536)
PCTAIRE1, sequence (Q00536 whole entry): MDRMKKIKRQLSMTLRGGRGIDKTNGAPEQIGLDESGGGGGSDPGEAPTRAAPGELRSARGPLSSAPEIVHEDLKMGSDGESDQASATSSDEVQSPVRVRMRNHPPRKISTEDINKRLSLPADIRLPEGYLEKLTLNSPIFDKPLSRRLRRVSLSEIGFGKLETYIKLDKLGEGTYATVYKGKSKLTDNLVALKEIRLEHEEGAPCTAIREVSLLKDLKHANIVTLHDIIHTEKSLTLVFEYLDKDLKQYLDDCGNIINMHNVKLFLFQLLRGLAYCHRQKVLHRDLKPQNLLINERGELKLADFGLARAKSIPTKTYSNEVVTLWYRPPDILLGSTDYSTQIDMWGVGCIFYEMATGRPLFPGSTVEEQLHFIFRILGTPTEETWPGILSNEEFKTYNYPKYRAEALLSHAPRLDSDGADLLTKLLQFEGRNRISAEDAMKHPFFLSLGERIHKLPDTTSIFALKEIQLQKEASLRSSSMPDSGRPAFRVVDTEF

MER = target: T2, MER (Homo sapiens, UniProt Q12866)
T2 sequence (Q12866 1-999): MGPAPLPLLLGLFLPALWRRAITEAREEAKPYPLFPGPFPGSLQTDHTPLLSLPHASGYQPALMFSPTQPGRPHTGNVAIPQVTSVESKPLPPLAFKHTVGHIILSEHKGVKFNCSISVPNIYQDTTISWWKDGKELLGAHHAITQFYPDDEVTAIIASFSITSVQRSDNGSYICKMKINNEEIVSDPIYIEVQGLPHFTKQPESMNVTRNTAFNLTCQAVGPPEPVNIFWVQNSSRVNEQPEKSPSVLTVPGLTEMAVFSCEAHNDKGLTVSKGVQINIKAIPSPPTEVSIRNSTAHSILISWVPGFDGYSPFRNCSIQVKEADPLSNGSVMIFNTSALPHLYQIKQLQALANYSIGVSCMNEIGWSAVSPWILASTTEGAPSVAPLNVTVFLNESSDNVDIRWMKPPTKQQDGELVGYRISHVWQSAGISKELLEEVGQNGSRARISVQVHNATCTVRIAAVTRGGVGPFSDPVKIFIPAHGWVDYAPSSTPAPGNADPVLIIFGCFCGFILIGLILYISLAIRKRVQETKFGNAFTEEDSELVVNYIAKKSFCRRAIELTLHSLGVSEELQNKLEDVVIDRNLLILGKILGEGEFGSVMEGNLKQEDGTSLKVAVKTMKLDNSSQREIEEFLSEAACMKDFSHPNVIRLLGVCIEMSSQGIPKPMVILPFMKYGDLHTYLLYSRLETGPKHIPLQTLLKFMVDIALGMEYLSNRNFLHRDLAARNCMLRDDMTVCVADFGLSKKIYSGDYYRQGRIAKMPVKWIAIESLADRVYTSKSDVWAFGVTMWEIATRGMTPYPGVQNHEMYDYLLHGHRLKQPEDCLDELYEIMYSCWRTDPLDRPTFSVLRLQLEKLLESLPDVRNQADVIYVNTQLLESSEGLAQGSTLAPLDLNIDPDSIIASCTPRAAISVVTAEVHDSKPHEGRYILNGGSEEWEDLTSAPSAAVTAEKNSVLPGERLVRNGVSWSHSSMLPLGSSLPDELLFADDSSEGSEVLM

PHKG2 = target: T3, PHKG2 (Homo sapiens, UniProt P15735)
T3 sequence (P15735 1-406): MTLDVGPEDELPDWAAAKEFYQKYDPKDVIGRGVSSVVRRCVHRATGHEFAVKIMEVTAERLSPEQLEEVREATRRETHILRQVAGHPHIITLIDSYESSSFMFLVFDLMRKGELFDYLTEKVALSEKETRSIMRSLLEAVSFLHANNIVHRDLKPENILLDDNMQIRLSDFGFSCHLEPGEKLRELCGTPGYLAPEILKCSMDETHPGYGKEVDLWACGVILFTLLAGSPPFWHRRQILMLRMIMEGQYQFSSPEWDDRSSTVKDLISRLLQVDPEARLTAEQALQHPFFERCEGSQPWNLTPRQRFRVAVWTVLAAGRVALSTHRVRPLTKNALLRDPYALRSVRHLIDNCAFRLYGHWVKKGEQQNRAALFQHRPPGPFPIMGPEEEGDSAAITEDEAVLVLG

NEK7 = NEK7 (Homo sapiens, UniProt Q8TDX7)
AAK1 = AAK1 (Homo sapiens, UniProt Q2M2I8)
AAK1, sequence (Q2M2I8 whole entry): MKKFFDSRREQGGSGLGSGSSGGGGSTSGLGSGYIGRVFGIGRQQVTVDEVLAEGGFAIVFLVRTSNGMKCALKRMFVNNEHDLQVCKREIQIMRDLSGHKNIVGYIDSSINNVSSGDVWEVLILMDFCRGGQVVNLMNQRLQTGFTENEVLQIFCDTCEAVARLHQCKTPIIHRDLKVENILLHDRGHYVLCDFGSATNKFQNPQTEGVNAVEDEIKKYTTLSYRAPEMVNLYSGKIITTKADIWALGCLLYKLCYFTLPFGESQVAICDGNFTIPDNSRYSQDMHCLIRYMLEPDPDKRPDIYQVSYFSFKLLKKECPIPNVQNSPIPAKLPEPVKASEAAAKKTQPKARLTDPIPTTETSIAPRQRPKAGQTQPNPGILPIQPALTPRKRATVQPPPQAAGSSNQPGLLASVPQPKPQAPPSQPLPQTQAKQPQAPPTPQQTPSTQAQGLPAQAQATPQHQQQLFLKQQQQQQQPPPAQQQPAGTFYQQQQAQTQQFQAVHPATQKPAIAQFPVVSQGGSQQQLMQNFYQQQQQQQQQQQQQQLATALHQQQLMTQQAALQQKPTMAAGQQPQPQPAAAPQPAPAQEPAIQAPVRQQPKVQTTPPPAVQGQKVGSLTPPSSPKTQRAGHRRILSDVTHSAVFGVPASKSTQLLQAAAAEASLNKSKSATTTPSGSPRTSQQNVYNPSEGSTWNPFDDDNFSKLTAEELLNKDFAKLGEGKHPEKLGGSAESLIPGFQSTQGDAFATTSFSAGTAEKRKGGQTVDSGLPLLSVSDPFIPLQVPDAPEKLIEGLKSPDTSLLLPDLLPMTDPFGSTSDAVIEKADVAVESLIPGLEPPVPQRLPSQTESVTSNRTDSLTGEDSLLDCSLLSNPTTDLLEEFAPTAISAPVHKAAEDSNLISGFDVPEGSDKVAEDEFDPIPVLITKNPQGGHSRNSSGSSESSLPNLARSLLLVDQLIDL

SRC = SRC (Homo sapiens, UniProt P12931)
SRC, sequence (P12931 whole entry): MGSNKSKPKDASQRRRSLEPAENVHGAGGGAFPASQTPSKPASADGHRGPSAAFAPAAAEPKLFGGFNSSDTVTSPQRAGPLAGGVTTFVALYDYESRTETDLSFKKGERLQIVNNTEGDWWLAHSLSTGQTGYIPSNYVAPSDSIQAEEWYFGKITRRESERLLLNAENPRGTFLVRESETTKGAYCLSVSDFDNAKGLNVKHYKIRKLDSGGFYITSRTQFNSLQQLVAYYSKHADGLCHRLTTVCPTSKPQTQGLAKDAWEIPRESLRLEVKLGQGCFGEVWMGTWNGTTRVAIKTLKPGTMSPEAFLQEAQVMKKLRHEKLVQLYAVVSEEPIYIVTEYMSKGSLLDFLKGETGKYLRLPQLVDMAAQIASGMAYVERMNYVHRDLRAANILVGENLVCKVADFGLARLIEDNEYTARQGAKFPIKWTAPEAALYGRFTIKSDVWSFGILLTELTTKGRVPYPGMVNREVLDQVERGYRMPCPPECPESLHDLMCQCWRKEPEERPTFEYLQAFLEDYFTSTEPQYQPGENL

RSK1b, sequence (Q15418 whole entry): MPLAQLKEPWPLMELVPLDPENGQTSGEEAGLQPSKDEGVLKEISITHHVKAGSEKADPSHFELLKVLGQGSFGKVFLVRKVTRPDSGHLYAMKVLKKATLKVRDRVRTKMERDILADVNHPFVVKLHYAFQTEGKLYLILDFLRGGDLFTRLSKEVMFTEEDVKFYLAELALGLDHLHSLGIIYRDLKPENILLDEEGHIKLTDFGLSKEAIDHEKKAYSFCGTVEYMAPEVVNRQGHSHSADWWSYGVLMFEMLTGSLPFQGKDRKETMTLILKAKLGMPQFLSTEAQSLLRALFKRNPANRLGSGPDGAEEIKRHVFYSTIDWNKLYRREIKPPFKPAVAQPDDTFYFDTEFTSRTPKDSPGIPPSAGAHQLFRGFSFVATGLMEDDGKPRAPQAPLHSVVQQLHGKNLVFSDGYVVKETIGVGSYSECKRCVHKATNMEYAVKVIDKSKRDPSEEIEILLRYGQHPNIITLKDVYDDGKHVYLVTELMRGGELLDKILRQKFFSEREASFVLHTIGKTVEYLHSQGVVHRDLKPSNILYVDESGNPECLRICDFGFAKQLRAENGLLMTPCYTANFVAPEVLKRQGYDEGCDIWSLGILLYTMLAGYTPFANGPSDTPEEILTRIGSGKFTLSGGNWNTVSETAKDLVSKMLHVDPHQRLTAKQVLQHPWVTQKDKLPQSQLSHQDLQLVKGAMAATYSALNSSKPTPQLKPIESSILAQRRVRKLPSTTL

CNc1ncc2cc(-c3cc(Cl)ccc3Cl)c(=O)n(CCCCN)c2n1 [compound 8, 8-(4-Aminobutyl)-6-(2,5-dichlorophenyl)-2-(methylamino)pyrido[2,3-d]pyrimidin-7(8H)-one]
ΔTm at 10 µM (RSK1b; read-out: dTm 8): 6.9 °C | ΔTm at 10 µM (DRAK2; read-out: dTm 8): 0.1 °C | ΔTm at 10 µM (PIM1; read-out: dTm 8): 0.8 °C | ΔTm at 10 µM (MARK3; read-out: dTm 8): 2.7 °C | ΔTm at 10 µM (LOK; read-out: dTm 8): 2.5 °C | ΔTm at 10 µM (HIPK2; read-out: dTm 8): 0.7 °C | ΔTm at 10 µM (PCTAIRE1; read-out: dTm 8): 0.7 °C | ΔTm at 10 µM (MER; read-out: dTm 8): 0.5 °C | ΔTm at 10 µM (PHKG2; read-out: dTm 8): 1.5 °C | ΔTm at 10 µM (NEK7; read-out: dTm 8): -0.2 °C | ΔTm at 10 µM (AAK1; read-out: dTm 8): 0.8 °C | ΔTm at 10 µM (SRC; read-out: dTm 8): 0.6 °C

CNc1ncc2cc(-c3cc(C(F)(F)F)ccc3Cl)c(=O)n(CCCCN)c2n1 [compound 9, 8-(4-Aminobutyl)-6-(2-chloro-5-(trifluoromethyl)phenyl)-2-(methylamino)pyrido[2,3-d]pyrimidin-7(8H)-one]
ΔTm at 10 µM (RSK1b; read-out: dTm 9): 4.5 °C | ΔTm at 10 µM (DRAK2; read-out: dTm 9): 0 °C | ΔTm at 10 µM (PIM1; read-out: dTm 9): 0.6 °C | ΔTm at 10 µM (MARK3; read-out: dTm 9): 0.7 °C | ΔTm at 10 µM (LOK; read-out: dTm 9): 1.6 °C | ΔTm at 10 µM (HIPK2; read-out: dTm 9): 0.7 °C | ΔTm at 10 µM (PCTAIRE1; read-out: dTm 9): 0.2 °C | ΔTm at 10 µM (MER; read-out: dTm 9): 0.2 °C | ΔTm at 10 µM (PHKG2; read-out: dTm 9): 0.5 °C | ΔTm at 10 µM (NEK7; read-out: dTm 9): 0.4 °C | ΔTm at 10 µM (AAK1; read-out: dTm 9): 0 °C | ΔTm at 10 µM (SRC; read-out: dTm 9): 0 °C

CNc1ncc2cc(-c3cc(Cl)ccc3Br)c(=O)n(CCCCN)c2n1 [compound 10, 8-(4-Aminobutyl)-6-(2-bromo-5-chlorophenyl)-2-(methylamino)pyrido[2,3-d]pyrimidin-7(8H)-one]
ΔTm at 10 µM (RSK1b; read-out: dTm 10): 6.2 °C | ΔTm at 10 µM (DRAK2; read-out: dTm 10): 0.1 °C | ΔTm at 10 µM (PIM1; read-out: dTm 10): 0.8 °C | ΔTm at 10 µM (MARK3; read-out: dTm 10): 3.7 °C | ΔTm at 10 µM (LOK; read-out: dTm 10): 3.5 °C | ΔTm at 10 µM (HIPK2; read-out: dTm 10): 0.8 °C | ΔTm at 10 µM (PCTAIRE1; read-out: dTm 10): 0.6 °C | ΔTm at 10 µM (MER; read-out: dTm 10): 0.7 °C | ΔTm at 10 µM (PHKG2; read-out: dTm 10): 1.3 °C | ΔTm at 10 µM (NEK7; read-out: dTm 10): -0.5 °C | ΔTm at 10 µM (AAK1; read-out: dTm 10): 0.5 °C | ΔTm at 10 µM (SRC; read-out: dTm 10): 0.6 °C

CNc1ncc2cc(-c3cc(Br)ccc3Br)c(=O)n(CCCCN)c2n1 [compound 11, 8-(4-Aminobutyl)-6-(2,5-dibromophenyl)-2-(methylamino)pyrido[2,3-d]pyrimidin-7(8H)-one]
ΔTm at 10 µM (RSK1b; read-out: dTm 11): 5.8 °C | ΔTm at 10 µM (DRAK2; read-out: dTm 11): 0 °C | ΔTm at 10 µM (PIM1; read-out: dTm 11): 0.6 °C | ΔTm at 10 µM (MARK3; read-out: dTm 11): 3.6 °C | ΔTm at 10 µM (LOK; read-out: dTm 11): 3.6 °C | ΔTm at 10 µM (HIPK2; read-out: dTm 11): 0.8 °C | ΔTm at 10 µM (PCTAIRE1; read-out: dTm 11): 0.9 °C | ΔTm at 10 µM (MER; read-out: dTm 11): 0.6 °C | ΔTm at 10 µM (PHKG2; read-out: dTm 11): 0.6 °C | ΔTm at 10 µM (NEK7; read-out: dTm 11): -0.2 °C | ΔTm at 10 µM (AAK1; read-out: dTm 11): 0.4 °C | ΔTm at 10 µM (SRC; read-out: dTm 11): 0.4 °C

CNc1ncc2cc(-c3cc(F)c(-c4cccc(C)n4)cc3F)c(=O)n(CCCCN)c2n1 [compound 12, 8-(4-Aminobutyl)-6-(2,5-difluoro-4-(6-methylpyridin-2-yl)phenyl)-2-(methylamino)pyrido[2,3-d]pyrimidin-7(8H)-one]
ΔTm at 10 µM (RSK1b; read-out: dTm 12): -0.2 °C | ΔTm at 10 µM (DRAK2; read-out: dTm 12): 5.7 °C | ΔTm at 10 µM (PIM1; read-out: dTm 12): 0.8 °C | ΔTm at 10 µM (MARK3; read-out: dTm 12): 5.3 °C | ΔTm at 10 µM (LOK; read-out: dTm 12): -0.4 °C | ΔTm at 10 µM (HIPK2; read-out: dTm 12): 0.4 °C | ΔTm at 10 µM (PCTAIRE1; read-out: dTm 12): 1.3 °C | ΔTm at 10 µM (MER; read-out: dTm 12): 1.1 °C | ΔTm at 10 µM (PHKG2; read-out: dTm 12): 1.5 °C | ΔTm at 10 µM (NEK7; read-out: dTm 12): -2.1 °C | ΔTm at 10 µM (AAK1; read-out: dTm 12): 0.5 °C | ΔTm at 10 µM (SRC; read-out: dTm 12): 1.2 °C

Reference: publication doi:10.1101/2023.03.24.534094v2 (biorxiv, 2023)
